Data as given in patent US6545031B1, “Endothelin receptor antagonists” (SmithKline Beecham Corporation, priority 1995, dated 2003).

| melting point | Compound |
| --- | --- |
| 226 to 227 °C | CCCCn1cc(/C=C(\Cc2cc3c(cc2OC)OCO3)C(=O)O)c(-c2ccc(OC)cc2OCc2ccccc2C(=O)O)n1 [Example 2, (E)-alpha-[[1-n-Butyl-3-[2-[(2-carboxyphenyl)methoxy]-4-methoxyphenyl]-1H-pyrazol-4-yl]methylene]-6-methoxy-1,3-benzodioxole-5-propanoic Acid] |
| 213 to 214 °C | CCCCn1ncc(/C=C(\Cc2cc3c(cc2OC)OCO3)C(=O)O)c1-c1ccc(OC)cc1OCc1ccccc1C(=O)O [Example 1, (E)-alpha-[[1-n-Butyl-5-[2-[(2-carboxyphenyl)methoxy]-4-methoxyphenyl]-1H-pyrazol-4-yl]methylene]-6-methoxy-1,3-benzodioxole-5-propanoic Acid] |
